Data reported in patent publication US8940742B2, “Heterocyclic compounds and uses thereof” (Infinity Pharmaceuticals, Inc., priority 2012, dated 2015).
pIC50: −log10 of the molar value.

Columns and labels:
[1] = PBS pH 7.4, 37° C., 24 hours, 5 μM; cited from earlier work
[2] = tested on: p190 transduced leukemic cells; details: about 70 mg/kg twice daily; cited from earlier work
NZB/W F1 mice = details: NZB/W model, profilactic and therapeutic; cited from earlier work
[3] = reference compound, 5 μM; cited from earlier work
PI3K γ = biological target: T1, PI3K γ (Homo sapiens, UniProt P48736); experiment: PI3-Kinase Promega ADP-Glo Max assay; format: biochemical; details: 40 nM kinase, 3 mM ATP, 500 uM diC8-PtdInsP
T1 construct: purchased Millipore
Method in brief: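 Human class I PI3K reactions ran 2 hours at room temperature, followed by stop solution (40 min) and detection mix (1 hour) before luminescence reading.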

Raw264.7 p110 γ = biological target: T2, Raw264.7 p110 γ (Mus musculus, UniProt Q9JHG7); experiment: Raw264.7 p110 γ cellular assay (phospho-AKT); format: cell-based; details: serum-starved RAW264.7 cells stimulated with C5a
T2 construct: reduction of phospho-AKT in stimulated RAW 264.7 cells; endogenous in cells; host or cells: RAW264.7 macrophages
Text: (b) PI3K-γ Selective Assay
Briefly, serum-starved PAW264.7 cells are stimulated with a known GPCR agonist C5a. […] Cells can be treated with test compounds prior to, simultaneously with, or subsequent to the stimulation by C5a. RAW 264.7 cells respond to the complement component fragment C5a through activation of the C5a receptor, and the C5a receptor activates macrophages and induces cell migration.

RAJI p110 δ = RAJI p110 δ (Homo sapiens, UniProt O00329); experiment: RAJI p110 δ cellular assay (phospho-AKT);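 also: potency based on lowered phosphorylated AKT in RAJI cells, as a readout of PI3K-δ dependent B-cell receptor signaling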
Text: (a) PI3K-δ Selective Assay
Reduction of phospho-AKT is indicative of compounds that may inhibit B-cell proliferation and function in certain diseases.

PI3K δ = biological target: T3, PI3K δ (Homo sapiens, UniProt O00329); experiment: PI3-Kinase Promega ADP-Glo Max assay; format: biochemical; details: 20 nM kinase, 3 mM ATP, 500 uM diC8-PtdInsP
T3 construct: purchased Millipore
Method in brief: (§1)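 Human class I PI3K (20 nM α or δ, 40 nM β) pre-incubated 15 min with compound in HEPES pH 7.4 buffer with MgCl2, then reacted 2 h at room temperature with 3 mM ATP and 500 uM diC8-PtdInsP. ADP measured by ADP-Glo Max luminescence; % inhibition fitted to 4-parameter logistic for IC50.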

PI3K β = biological target: T4, PI3K β (Homo sapiens, UniProt P42338); experiment: PI3-Kinase Promega ADP-Glo Max assay; format: biochemical; details: 40 nM kinase, 3 mM ATP, 500 uM diC8-PtdInsP
T4 construct: purchased Millipore
Method in brief: as §1

PI3K α = biological target: T5, PI3K α (Homo sapiens, UniProt P42336); experiment: PI3-Kinase Promega ADP-Glo Max assay; format: biochemical; details: 20 nM kinase, 3 mM ATP, 500 uM diC8-PtdInsP
T5 construct: purchased Millipore
Method in brief: as §1

lupus symptoms = details: B6.Sle1z.Sle3z model; cited from earlier work

T5 sequence (P42336 whole entry): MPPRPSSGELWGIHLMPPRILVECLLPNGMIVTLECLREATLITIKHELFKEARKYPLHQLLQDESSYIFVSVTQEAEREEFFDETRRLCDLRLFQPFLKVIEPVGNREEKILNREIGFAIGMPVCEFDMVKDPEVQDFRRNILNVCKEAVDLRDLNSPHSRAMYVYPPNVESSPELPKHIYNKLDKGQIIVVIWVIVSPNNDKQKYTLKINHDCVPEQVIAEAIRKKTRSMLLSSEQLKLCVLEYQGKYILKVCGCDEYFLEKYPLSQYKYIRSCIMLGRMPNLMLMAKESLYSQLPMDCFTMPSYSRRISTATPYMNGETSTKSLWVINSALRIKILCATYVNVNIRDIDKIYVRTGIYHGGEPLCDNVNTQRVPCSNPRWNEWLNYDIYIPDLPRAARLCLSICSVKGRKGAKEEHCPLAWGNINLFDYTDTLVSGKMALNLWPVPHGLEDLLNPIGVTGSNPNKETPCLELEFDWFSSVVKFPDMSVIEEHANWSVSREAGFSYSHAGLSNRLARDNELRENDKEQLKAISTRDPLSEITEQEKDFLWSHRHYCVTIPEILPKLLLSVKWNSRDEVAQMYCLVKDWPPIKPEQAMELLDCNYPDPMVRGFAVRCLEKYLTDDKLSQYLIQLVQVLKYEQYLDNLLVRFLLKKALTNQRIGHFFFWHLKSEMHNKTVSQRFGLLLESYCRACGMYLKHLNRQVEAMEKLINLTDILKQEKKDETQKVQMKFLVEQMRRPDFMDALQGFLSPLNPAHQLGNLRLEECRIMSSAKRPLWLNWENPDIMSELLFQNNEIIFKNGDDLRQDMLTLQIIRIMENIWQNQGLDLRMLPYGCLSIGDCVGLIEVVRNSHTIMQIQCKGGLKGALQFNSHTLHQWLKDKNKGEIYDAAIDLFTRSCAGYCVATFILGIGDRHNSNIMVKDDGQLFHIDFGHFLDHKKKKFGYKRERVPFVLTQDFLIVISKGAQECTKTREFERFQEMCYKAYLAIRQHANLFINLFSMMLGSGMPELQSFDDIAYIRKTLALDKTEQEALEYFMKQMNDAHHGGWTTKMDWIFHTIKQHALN
T5 sequence (P27986 whole entry partner): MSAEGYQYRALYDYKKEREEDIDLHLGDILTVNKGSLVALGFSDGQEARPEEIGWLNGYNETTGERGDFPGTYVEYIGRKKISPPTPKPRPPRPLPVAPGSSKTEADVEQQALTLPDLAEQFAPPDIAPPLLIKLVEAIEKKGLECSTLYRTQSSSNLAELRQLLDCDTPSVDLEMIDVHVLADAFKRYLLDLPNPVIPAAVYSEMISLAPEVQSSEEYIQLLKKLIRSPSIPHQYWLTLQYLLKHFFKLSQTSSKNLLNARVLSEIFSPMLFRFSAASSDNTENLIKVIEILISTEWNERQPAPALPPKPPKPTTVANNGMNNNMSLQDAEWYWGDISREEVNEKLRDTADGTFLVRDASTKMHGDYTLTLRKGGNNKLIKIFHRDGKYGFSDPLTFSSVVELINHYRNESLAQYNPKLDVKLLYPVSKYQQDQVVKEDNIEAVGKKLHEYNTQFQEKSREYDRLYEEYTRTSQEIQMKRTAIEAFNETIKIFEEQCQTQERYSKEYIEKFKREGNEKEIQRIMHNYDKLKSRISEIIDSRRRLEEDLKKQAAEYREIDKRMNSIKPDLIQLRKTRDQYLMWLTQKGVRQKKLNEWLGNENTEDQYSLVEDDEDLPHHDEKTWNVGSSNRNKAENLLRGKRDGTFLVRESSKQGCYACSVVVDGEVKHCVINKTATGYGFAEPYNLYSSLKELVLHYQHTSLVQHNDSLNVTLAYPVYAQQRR
T3 sequence (O00329 whole entry): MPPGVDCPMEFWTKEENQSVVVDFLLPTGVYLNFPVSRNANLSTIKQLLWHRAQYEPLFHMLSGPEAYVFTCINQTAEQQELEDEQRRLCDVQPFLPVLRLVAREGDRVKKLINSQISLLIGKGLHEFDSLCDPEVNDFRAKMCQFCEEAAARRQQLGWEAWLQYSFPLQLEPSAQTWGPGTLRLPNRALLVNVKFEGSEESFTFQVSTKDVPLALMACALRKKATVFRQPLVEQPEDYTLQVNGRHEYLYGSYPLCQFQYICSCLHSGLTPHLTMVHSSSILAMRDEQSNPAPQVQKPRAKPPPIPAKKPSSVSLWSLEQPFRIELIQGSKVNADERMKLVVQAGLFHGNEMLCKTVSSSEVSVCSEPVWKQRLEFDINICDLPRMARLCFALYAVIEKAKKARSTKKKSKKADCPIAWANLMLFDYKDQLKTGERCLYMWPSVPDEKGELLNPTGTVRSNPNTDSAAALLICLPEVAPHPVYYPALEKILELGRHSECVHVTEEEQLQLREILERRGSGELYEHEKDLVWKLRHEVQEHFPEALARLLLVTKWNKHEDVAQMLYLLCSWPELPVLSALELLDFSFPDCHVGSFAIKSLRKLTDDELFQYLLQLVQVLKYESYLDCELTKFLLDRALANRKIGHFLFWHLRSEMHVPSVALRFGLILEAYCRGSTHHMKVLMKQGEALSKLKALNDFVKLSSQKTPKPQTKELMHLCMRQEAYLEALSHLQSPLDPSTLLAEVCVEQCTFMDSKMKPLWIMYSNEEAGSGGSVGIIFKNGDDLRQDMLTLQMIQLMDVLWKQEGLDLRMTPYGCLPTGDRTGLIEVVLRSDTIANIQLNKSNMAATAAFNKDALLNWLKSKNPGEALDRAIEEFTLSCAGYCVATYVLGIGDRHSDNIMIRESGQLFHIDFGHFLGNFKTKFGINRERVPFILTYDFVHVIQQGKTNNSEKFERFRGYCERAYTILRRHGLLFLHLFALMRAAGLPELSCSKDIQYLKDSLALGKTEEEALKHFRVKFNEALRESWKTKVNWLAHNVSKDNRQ
T3 sequence (P27986 whole entry partner): as the sequence (P27986 whole entry partner) above
Sequence of RAJI p110 δ (O00329 whole entry): as the sequence (O00329 whole entry) above
Sequence of RAJI p110 δ (P27986 whole entry partner): as the sequence (P27986 whole entry partner) above
T2 sequence (Q9JHG7 whole entry): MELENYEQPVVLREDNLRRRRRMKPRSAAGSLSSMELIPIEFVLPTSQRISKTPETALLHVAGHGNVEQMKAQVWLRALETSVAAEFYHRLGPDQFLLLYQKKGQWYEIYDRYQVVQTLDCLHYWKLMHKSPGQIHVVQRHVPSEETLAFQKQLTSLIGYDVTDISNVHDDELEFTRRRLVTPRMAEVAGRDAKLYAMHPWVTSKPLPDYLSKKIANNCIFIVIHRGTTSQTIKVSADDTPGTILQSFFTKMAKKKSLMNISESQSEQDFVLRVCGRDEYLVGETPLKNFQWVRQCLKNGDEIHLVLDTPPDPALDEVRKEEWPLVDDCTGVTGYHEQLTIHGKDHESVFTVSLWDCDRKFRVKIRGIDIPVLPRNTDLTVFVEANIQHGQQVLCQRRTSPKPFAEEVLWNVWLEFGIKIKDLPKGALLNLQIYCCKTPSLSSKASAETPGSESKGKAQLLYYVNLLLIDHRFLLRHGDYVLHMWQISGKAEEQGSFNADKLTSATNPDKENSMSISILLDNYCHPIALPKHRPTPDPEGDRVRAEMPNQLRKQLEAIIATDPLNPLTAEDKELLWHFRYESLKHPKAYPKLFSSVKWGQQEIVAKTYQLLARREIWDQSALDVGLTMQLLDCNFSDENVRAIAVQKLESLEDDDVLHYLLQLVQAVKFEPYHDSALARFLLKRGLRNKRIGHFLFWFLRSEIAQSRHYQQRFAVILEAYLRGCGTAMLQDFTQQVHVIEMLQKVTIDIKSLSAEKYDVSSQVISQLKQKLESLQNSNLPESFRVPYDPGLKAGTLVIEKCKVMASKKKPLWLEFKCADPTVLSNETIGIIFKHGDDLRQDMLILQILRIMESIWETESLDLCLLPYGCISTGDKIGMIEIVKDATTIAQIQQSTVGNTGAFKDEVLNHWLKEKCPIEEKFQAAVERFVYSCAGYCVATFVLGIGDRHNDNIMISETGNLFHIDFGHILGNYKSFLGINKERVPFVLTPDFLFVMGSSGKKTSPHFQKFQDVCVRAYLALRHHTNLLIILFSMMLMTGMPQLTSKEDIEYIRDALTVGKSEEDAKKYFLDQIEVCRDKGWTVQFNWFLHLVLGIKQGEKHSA

pIC50 (PI3K γ)	pIC50 (Raw264.7 p110 γ)	pIC50 (RAJI p110 δ)	pIC50 (PI3K δ)	pIC50 (PI3K β)	pIC50 (PI3K α)	Compound	chemical stability [1]	leukemogenesis [2]	blocking disease (NZB/W F1 mice)	plasma stability [3]	lupus symptoms (lupus symptoms)
6.00 to 7.00	> 7.00	> 7.00	5.00 to 6.00	5.00 to 6.00	< 5.00	CC(C)Oc1cc(-c2cccc3cc([C@H](C)NC(=O)c4c(N)nn5cccnc45)n(-c4ccccc4)c(=O)c23)ccn1 [Compound 138]					
6.00 to 7.00	> 7.00	6.00 to 7.00	5.00 to 6.00	< 5.00	5.00 to 6.00	C[C@H](NC(=O)c1c(N)nn2cccnc12)c1cc2cccc(-c3ccccc3)c2c(=O)n1-c1ccccc1 [Compound 115]					
6.00 to 7.00	6.00 to 7.00	6.00 to 7.00	5.00 to 6.00	5.00 to 6.00	5.00 to 6.00	C[C@H](NC(=O)c1c(N)nn2cccnc12)c1cc2cccc(C#CCCN)c2c(=O)n1-c1ccccc1 [Compound 154]					
5.00 to 6.00	6.00 to 7.00	6.00 to 7.00	5.00 to 6.00	< 5.00	< 5.00	COc1cccc2cc([C@H](C)NC(=O)c3c(N)nn4cccnc34)n(-c3ccccc3)c(=O)c12 [Compound 270]					
> 7.00	> 7.00	> 7.00	6.00 to 7.00	6.00 to 7.00	6.00 to 7.00	C#Cc1cccc2cc([C@H](C)NC(=O)c3c(N)nn4cccnc34)n(-c3ccccc3)c(=O)c12 [Compound 276]					
> 7.00	> 7.00	> 7.00	6.00 to 7.00	6.00 to 7.00	5.00 to 6.00	C[C@H](NC(=O)c1c(N)nn2cccnc12)c1cc2cccc(Cl)c2c(=O)n1-c1cccc(F)c1 [Compound 78]					
5.00 to 6.00	> 7.00	6.00 to 7.00	5.00 to 6.00	< 5.00	< 5.00	C[C@H](NC(=O)c1c(N)nn2cccnc12)c1cc2cccc(C3CC3)c2c(=O)n1-c1ccccc1 [Compound 193]					
5.00 to 6.00	> 7.00	6.00 to 7.00	< 5.00	5.00 to 6.00	< 5.00	C[C@H](NC(=O)c1c(N)nn2cccnc12)c1cc2cccc(O)c2c(=O)n1-c1ccccc1 [Compound 132]					
> 7.00	> 7.00	> 7.00	6.00 to 7.00	6.00 to 7.00	5.00 to 6.00	C[C@H](NC(=O)c1c(N)nn2cccnc12)c1cc2scc(Cl)c2c(=O)n1-c1ccccc1 [Compound 212]					
6.00 to 7.00	> 7.00	> 7.00	5.00 to 6.00	5.00 to 6.00	< 5.00	C[C@H](NC(=O)c1c(N)nn2cccnc12)c1cc2cccc(C(F)(F)F)c2c(=O)n1-c1ccccc1 [Compound 71]					
6.00 to 7.00	> 7.00	> 7.00	5.00 to 6.00	< 5.00	5.00 to 6.00	C[C@H](NC(=O)c1c(N)nn2cccnc12)c1cc2cccc(-c3cncs3)c2c(=O)n1-c1ccccc1 [Compound 245]					
> 7.00	> 7.00	> 7.00	6.00 to 7.00	6.00 to 7.00	5.00 to 6.00	C[C@H](NC(=O)c1c(N)nn2cccnc12)c1cc2cccc(F)c2c(=O)n1-c1ccccc1 [Compound 191]					

More lines, now with the values behind:

Compound	pIC50 (PI3K γ)	pIC50 (Raw264.7 p110 γ)	pIC50 (RAJI p110 δ)	pIC50 (PI3K δ)	pIC50 (PI3K β)	pIC50 (PI3K α)	chemical stability [1]	leukemogenesis [2]	blocking disease (NZB/W F1 mice)	plasma stability [3]	lupus symptoms (lupus symptoms)
O=C(O)CCCc1ccc(N(CCCl)CCCl)cc1 [chlorambucil]							largely hydrolyzed over the course of 24 hours				
Cc1ccc(NC(=O)c2ccc(CN3CCN(C)CC3)cc2)cc1Nc1nccc(-c2cccnc2)n1 [imatinib]								delay but not cure leukemogenesis			
CC(C)C[C@H](NC(=O)[C@H](Cc1ccccc1)NC(=O)c1cnccn1)B(O)O [Bortezimib]									effective at blocking disease		
CC(C)[N+](C)(CCOC(=O)C1c2ccccc2Oc2ccccc21)C(C)C [propantheline]										intermediate plasma stability	
CCCOc1cc(N)ccc1C(=O)OCCN(CC)CC [propoxycaine]										low plasma stability	
CO[C@H]1C[C@@H]2CC[C@@H](C)[C@@](O)(O2)C(=O)C(=O)N2CCCC[C@H]2C(=O)O[C@H]([C@H](C)C[C@@H]2CC[C@@H](OCCO)[C@H](OC)C2)CC(=O)[C@H](C)/C=C(\C)[C@@H](O)[C@@H](OC)C(=O)[C@H](C)C[C@H](C)/C=C/C=C/C=C/1C [RAD001, everolimus]											ameliorate lupus symptoms
CC(=O)Nc1cccc(-c2cccc3cc([C@H](C)NC(=O)c4c(N)nn5cccnc45)n(-c4ccccc4)c(=O)c23)c1 [Compound 202]	6.00 to 7.00	6.00 to 7.00	> 7.00	5.00 to 6.00	< 5.00	5.00 to 6.00					
Cc1cnc(C(=O)N[C@@H](C)c2cc3cccc(C(F)(F)F)c3c(=O)n2-c2ccccc2)c(N)n1 [Compound 80]	5.00 to 6.00	6.00 to 7.00	5.00 to 6.00	< 5.00	< 5.00	< 5.00					
Cc1ccn2nc(N)c(C(=O)N[C@@H](C)c3cc4cccc(Cl)c4c(=O)n3-c3ccccc3)c2n1 [Compound 142]	6.00 to 7.00	> 7.00	> 7.00	6.00 to 7.00	> 7.00	5.00 to 6.00					
C[C@H](NC(=O)c1c(N)nn2cccnc12)c1cc2cccc(Cl)c2c(=O)n1C1CCCCC1 [Compound 196]	5.00 to 6.00	> 7.00	> 7.00	5.00 to 6.00	5.00 to 6.00	5.00 to 6.00					
Cc1cnc(N)c(C(=O)N[C@@H](C)c2cc3cccc(Cl)c3c(=O)n2-c2ccccc2)n1 [Compound 89]	5.00 to 6.00	6.00 to 7.00	6.00 to 7.00	5.00 to 6.00	5.00 to 6.00	< 5.00					
C[C@H](NC(=O)c1c(N)nn2cccnc12)c1cc2cccc(Cl)c2c(=O)n1CC(O)CO (stereo partly drawn) [Compound 238]	6.00 to 7.00	> 7.00	> 7.00	6.00 to 7.00	> 7.00	5.00 to 6.00					
C=CC(=O)NCCC#Cc1cccc2cc([C@H](C)NC(=O)c3c(N)nn4cccnc34)n(-c3ccccc3)c(=O)c12 [Compound 160]	6.00 to 7.00	> 7.00	> 7.00	5.00 to 6.00	5.00 to 6.00	5.00 to 6.00					
C[C@H](NC(=O)c1cncc2cccnc12)c1cc2cccc(Cl)c2c(=O)n1-c1ccc(F)cc1 [Compound 65]	5.00 to 6.00	> 7.00	> 7.00	5.00 to 6.00	5.00 to 6.00	5.00 to 6.00					
C[C@H](NC(=O)c1c(N)nn2cccnc12)c1cc2cccc(-c3cncc(NS(C)(=O)=O)c3)c2c(=O)n1-c1ccccc1 [Compound 120]	6.00 to 7.00	6.00 to 7.00	> 7.00	6.00 to 7.00	< 5.00	5.00 to 6.00					
C[C@H](NC(=O)c1nc(-c2cccc(NS(=O)(=O)N(C)C)c2)cnc1N)c1cc2cccc(Cl)c2c(=O)n1-c1ccccc1 [Compound 99]	> 7.00	> 7.00	> 7.00	6.00 to 7.00	6.00 to 7.00	5.00 to 6.00					
Cc1cc(C)n2nc(N)c(C(=O)N[C@@H](C)c3cc4cccc(Cl)c4c(=O)n3-c3ccccc3)c2n1 [Compound 152]	6.00 to 7.00	> 7.00	> 7.00	5.00 to 6.00	6.00 to 7.00	5.00 to 6.00					
COc1cc(-c2cccc3cc([C@H](C)NC(=O)c4c(N)ncc5cccnc45)n(-c4ccccc4)c(=O)c23)ccn1 [Compound 140]	> 7.00	> 7.00	> 7.00	6.00 to 7.00	< 5.00	5.00 to 6.00					
C[C@H](NC(=O)c1nc(-c2cccc(S(N)(=O)=O)c2)cnc1N)c1cc2cccc(Cl)c2c(=O)n1-c1ccccc1 [Compound 108]	6.00 to 7.00	> 7.00	6.00 to 7.00	5.00 to 6.00	6.00 to 7.00	5.00 to 6.00					
C[C@H](NC(=O)c1nc(-c2cccc(S(=O)(=O)N(C)C)c2)cnc1N)c1cc2cccc(Cl)c2c(=O)n1-c1ccccc1 [Compound 91]	5.00 to 6.00	6.00 to 7.00	6.00 to 7.00	5.00 to 6.00	5.00 to 6.00	< 5.00					
